In PubChem BioAssay AID1963836 (Molecular Pharmacology Branch, DTP, NCI, 2024):
pIC50: −log10 of the molar value.

System: 857933-349-R-J2-PDC complex spheroid viability
Assay: Anticancer human tumor 857933-349-R-J2-PDC patient-derived colon adenocarcinoma cell line growth inhibition [POLQ]
Conditions: for pIC50: curve of first compound; for viability, T/C: stronger effect = lower value
Outline: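 Complex spheroid viability model combining PDC tumour cells with endothelial (HUVEC) and MSC stromal cells. Novobiocin, ART-558 or RP6685 were tested singly and in combination with standard and investigational anticancer drugs. Each was titrated in half-log steps from near clinical Cmax, or from 10 microM where Cmax was unknown.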

[1] = second compound 0.0316 µM, first compound 0.0316 µM
[2] = second compound 0.0316 µM, first compound 0.1 µM
[3] = second compound 0.0316 µM, first compound 0.316 µM
[4] = second compound 0.0316 µM, first compound 1 µM
[5] = second compound 0.1 µM, first compound 0.0316 µM
[6] = second compound 0.1 µM, first compound 0.1 µM
[7] = second compound 0.1 µM, first compound 0.316 µM
[8] = second compound 0.1 µM, first compound 1 µM
[9] = second compound 0.316 µM, first compound 0.0316 µM
[10] = second compound 0.316 µM, first compound 0.1 µM
[11] = second compound 0.316 µM, first compound 0.316 µM
[12] = second compound 0.316 µM, first compound 1 µM
[13] = second compound 1 µM, first compound 0.0316 µM
[14] = second compound 1 µM, first compound 0.1 µM
[15] = second compound 1 µM, first compound 0.316 µM
[16] = second compound 1 µM, first compound 1 µM
[17] = second compound 3.16 µM, first compound 0.0316 µM
[18] = second compound 3.16 µM, first compound 0.1 µM
[19] = second compound 3.16 µM, first compound 0.316 µM
[20] = second compound 3.16 µM, first compound 1 µM
[21] = second compound 10 µM, first compound 0.0316 µM
[22] = second compound 10 µM, first compound 0.1 µM
[23] = second compound 10 µM, first compound 0.316 µM
[24] = second compound 10 µM, first compound 1 µM
[25] = second compound 0.0316 µM, first compound 3.16 µM
[26] = second compound 0.0316 µM, first compound 10 µM
[27] = second compound 0.1 µM, first compound 3.16 µM
[28] = second compound 0.1 µM, first compound 10 µM
[29] = second compound 0.316 µM, first compound 3.16 µM
[30] = second compound 0.316 µM, first compound 10 µM
[31] = second compound 1 µM, first compound 3.16 µM
[32] = second compound 1 µM, first compound 10 µM
[33] = second compound 3.16 µM, first compound 3.16 µM
[34] = second compound 3.16 µM, first compound 10 µM
[35] = second compound 10 µM, first compound 3.16 µM
[36] = second compound 10 µM, first compound 10 µM
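Note: spheroids exposed to compounds for seven days before readout.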

CCc1c2c(nc3ccc(O)cc13)-c1cc3c(c(=O)n1C2)COC(=O)[C@]3(O)CC + Cc1cccc(N(C)C(=O)C2C(O)CCN2c2nc(C)cc(C(F)(F)F)c2C#N)c1 gave a pIC50 (second compound 0.0316 µM) of 7.67, a pIC50 (second compound 0.1 µM) of 7.78 and a pIC50 (second compound 0.316 µM) of 7.85. For the same compound, the pIC50 (second compound 1 µM) was 7.81, the pIC50 (second compound 3.16 µM) was 7.87 and the pIC50 (second compound 10 µM) was 7.87. The viability, T/C (second compound 0.0316 µM, first compound 0.00316 µM) was 75%, the viability, T/C (second compound 0.0316 µM, first compound 0.01 µM) was 78.5% and the viability, T/C [1] was 36.5%. It also gave a viability, T/C [2] of 20%, a viability, T/C [3] of 16.1% and a viability, T/C [4] of 5.22%. It also gave a viability, T/C (second compound 0.1 µM, first compound 0.00316 µM) of 70.1%, a viability, T/C (second compound 0.1 µM, first compound 0.01 µM) of 68.6% and a viability, T/C [5] of 27.4%. It also gave a viability, T/C [6] of 17.7%, a viability, T/C [7] of 13.2% and a viability, T/C [8] of 3.51%. For the same compound, the viability, T/C (second compound 0.316 µM, first compound 0.00316 µM) was 67%, the viability, T/C (second compound 0.316 µM, first compound 0.01 µM) was 59.5% and the viability, T/C [9] was 32%. The viability, T/C [10] was 20.2%, the viability, T/C [11] was 15% and the viability, T/C [12] was 4.16%. The viability, T/C (second compound 1 µM, first compound 0.00316 µM) was 73.9%, the viability, T/C (second compound 1 µM, first compound 0.01 µM) was 62.5% and the viability, T/C [13] was 30.8%. It also gave a viability, T/C [14] of 19.8%, a viability, T/C [15] of 14.1% and a viability, T/C [16] of 5.21%. It also gave a viability, T/C (second compound 3.16 µM, first compound 0.00316 µM) of 72.9%, a viability, T/C (second compound 3.16 µM, first compound 0.01 µM) of 59.6% and a viability, T/C [17] of 23.5%. For the same compound, the viability, T/C [18] was 19.1%, the viability, T/C [19] was 12.3% and the viability, T/C [20] was 4.25%. It also gave a viability, T/C (second compound 10 µM, first compound 0.00316 µM) of 65.1%, a viability, T/C (second compound 10 µM, first compound 0.01 µM) of 60.2% and a viability, T/C [21] of 22.4%. The viability, T/C [22] was 17.7%, the viability, T/C [23] was 17.1% and the viability, T/C [24] was 2.64%.
With COc1cc(C2c3cc4c(cc3C(OC3OC5COC(C)OC5C(O)C3O)C3COC(=O)C23)OCO4)cc(OC)c1O (stereo unspecified) + Cc1cccc(N(C)C(=O)C2C(O)CCN2c2nc(C)cc(C(F)(F)F)c2C#N)c1 the pIC50 (second compound 0.0316 µM) was 6.14, the pIC50 (second compound 0.1 µM) was 6.26 and the pIC50 (second compound 0.316 µM) was 6.10. It also gave a pIC50 (second compound 1 µM) of 6.27, a pIC50 (second compound 3.16 µM) of 6.62 and a pIC50 (second compound 10 µM) of 6.49. It also gave a viability, T/C [1] of 86.1%, a viability, T/C [2] of 81.9% and a viability, T/C [3] of 60%. It also gave a viability, T/C [4] of 47%, a viability, T/C [25] of 37.1% and a viability, T/C [26] of 33.9%. It also gave a viability, T/C [5] of 111%, a viability, T/C [6] of 92.6% and a viability, T/C [7] of 51.5%. For the same compound, the viability, T/C [8] was 49.3%, the viability, T/C [27] was 42.4% and the viability, T/C [28] was 27.2%. For the same compound, the viability, T/C [9] was 83.2%, the viability, T/C [10] was 83% and the viability, T/C [11] was 60%. It also gave a viability, T/C [12] of 49.9%, a viability, T/C [29] of 36% and a viability, T/C [30] of 35.2%. It also gave a viability, T/C [13] of 86.5%, a viability, T/C [14] of 68.5% and a viability, T/C [15] of 60.4%. It also gave a viability, T/C [16] of 40%, a viability, T/C [31] of 36.5% and a viability, T/C [32] of 34.7%. The viability, T/C [17] was 72.3%, the viability, T/C [18] was 80.5% and the viability, T/C [19] was 41.6%. The viability, T/C [20] was 36%, the viability, T/C [33] was 38% and the viability, T/C [34] was 33.4%. For the same compound, the viability, T/C [21] was 79.1%, the viability, T/C [22] was 66% and the viability, T/C [23] was 49.1%. The viability, T/C [24] was 40.9%, the viability, T/C [35] was 37.9% and the viability, T/C [36] was 33.3%.
With O=c1[nH]cc(F)c(=O)[nH]1 + Cc1cccc(N(C)C(=O)C2C(O)CCN2c2nc(C)cc(C(F)(F)F)c2C#N)c1 the pIC50 (second compound 0.0316 µM) was 5.61, the pIC50 (second compound 0.1 µM) was 5.51 and the pIC50 (second compound 0.316 µM) was 5.51. The pIC50 (second compound 1 µM) was 5.48, the pIC50 (second compound 3.16 µM) was 5.53 and the pIC50 (second compound 10 µM) was 5.68. It also gave a viability, T/C [1] of 90.7%, a viability, T/C [2] of 85.8% and a viability, T/C [3] of 95.5%. The viability, T/C [4] was 77.8%, the viability, T/C [25] was 42.6% and the viability, T/C [26] was 29.5%. The viability, T/C [5] was 123%, the viability, T/C [6] was 109% and the viability, T/C [7] was 106%. The viability, T/C [8] was 74.9%, the viability, T/C [27] was 50% and the viability, T/C [28] was 30%. It also gave a viability, T/C [9] of 102%, a viability, T/C [10] of 105% and a viability, T/C [11] of 80.3%. The viability, T/C [12] was 82%, the viability, T/C [29] was 43.9% and the viability, T/C [30] was 34.8%. For the same compound, the viability, T/C [13] was 94.3%, the viability, T/C [14] was 95.3% and the viability, T/C [15] was 77.4%. The viability, T/C [16] was 85.8%, the viability, T/C [31] was 50.7% and the viability, T/C [32] was 30.6%. It also gave a viability, T/C [17] of 93.8%, a viability, T/C [18] of 92.6% and a viability, T/C [19] of 85.8%. For the same compound, the viability, T/C [20] was 69.7%, the viability, T/C [33] was 49.1% and the viability, T/C [34] was 27.6%. The viability, T/C [21] was 90.8%, the viability, T/C [22] was 122% and the viability, T/C [23] was 99.2%. It also gave a viability, T/C [24] of 68.9%, a viability, T/C [35] of 41.9% and a viability, T/C [36] of 29.3%.
